In patent US8552068B2, “Compositions and methods” (priority 2004, dated 2013):
Entries after “also recorded” stand apart in the source; their conditions may differ.

How the values were obtained:
[1] = test system: Artificially-ventilated pentobarbital anesthetised rabbits; experiment: Intravenous infusion of carrier solutions saturated with pure nitric oxide gas; exhaled NO and MAP; format: in vivo, rabbit
Description: Male white New Zealand rabbits were subjected to different doses of an intravenous infusion of NO-substituted solutions at different doses. Several physiological parameters were measured during the experiments, including NO concentration in mixed exhaled gas (FENO).
(§1) Different carrier media solutions (table 1) were dissolved and diluted with saline or water to obtain different concentration of the solutions. The solution was then placed in a gas-tight chamber and deoxygenated by means of helium bubbling for 10 min. The glass chamber was then gassed with pure nitric oxide gas for 3-4 min.
Data are given as mean±SEM.

[2] = test system: artificially ventilated pentobarbital anaesthetized rabbits; experiment: Effects of L-NAME infusion in anaesthetised rabbit; details: L-NAME 30 mg kg^−1 throughout 10 min
Source text: The experiments were approved by the local animal ethics committee. […] The animals were placed in supine position and tracheotomised just below the cricoid cartilage to allow mechanical ventilation using a tracheal cannula with an outer diameter of 5 mm. […] The ventilator was supplied with NO-free air using a charcoal filter (110×11 cm). […] The minute ventilation was 0.64-0.96 l min^−1. To the other side arm a pressure transducer (Statham, Hato Rey, Puerto Rico) was connected thus monitoring the insufflation pressure. The gas from the ventilator outlet was led through a switching valve to either of two beakers creating a positive end-expiratory pressure (PEEP) of 1-2 CmH2O or 4-5 cmhbO. During the experiment the gas flow was altered between the lower PEEP (9 min) and the higher PEEP (1 min) with an interval of totally 10 min. […] A heparinized catheter was inserted in the left common carotid artery for blood pressure and heart rate recordings (pressure transducer, Statham, Hato Rey, Puerto Rico), and arterial blood sampling. Another catheter was inserted in the right jugular vein for drug and muscle emboli administration. […] The muscles from the anterior compartment of the right lower hind limb were resected and placed in normal saline. Hereafter the animals were allowed a 30-60 min intervention-free period to obtain stable circulatory conditions and stable concentrations of expired NO.
NO concentration, in mixed exhaled gas, was continuously measured by means of a chemiluminescence based system (Niox, Aerocrine AB, Solna, Sweden) sampling at 100 ml min^−1 at the end of a mixing chamber connected to the ventilator exhaust. The full mixing of expired air thus measured on was intermittently checked by monitoring CO2 concentration in the same chamber. In a few experiments, gas for NO measurement was sampled from the trachea at the same point as for tidal CO2 measurements, thus yielding breath by breath NO concentrations. Calibration was done using certified NO standard gas in nitrogen (AGA Specialgas, Lidingδ, Sweden).
Blood samples were collected and analyzed for blood gases and acid-base status (ABL 300, Radiometer A/S, Copenhagen, Denmark) before L-NAME administration (group 2, time=−40 min) and shortly before muscle emboli challenge (group 1 and 2, time=−5 min). […] Arterial blood samples were collected and analysed at 10 min, 20 min, 40 min and 60 min after embolization. NO concentration in exhaled gas, end-tidal CO2, heart rate, mean arterial pressure and insufflation pressure was continuously monitored on a Grass Polygraph (Grass Instruments Co, Quincy, Mass., USA) during the experiments.

[3] = Deoxygenation and exposure of carrier to NO gas (suitability for infusion); format: physicochemical
Description: as §1

[4] = test system: pulmonary embolism / venous gas embolism in NO-synthesis inhibited animals; experiment: Treatment of embolism with NO in lipid emulsion in animals with inhibited NO production; format: in vivo; details: animal with inhibited NO production
Source text: It is contemplated that the NO infusion exerts vasodilatory effects in the pulmonary circulation, and/or mild vasodilatory effect on systemic circulation, and inhibits thrombocyte aggregation, or a combination of these effects.
The beneficial effects may be induction of vasodilation in the pulmonary vasculature, inhibition of aggregation of thrombocytes and/or minor vasodilation in the whole or parts of the systemic circulation, for example in the coronary circulation.

Compound | effect as NO carrier / NO delivering capacity (words) ([1]; compared to the saline control) | Exhaled NO, Change (%) ([1]; infusion versus pre-infusion) | Exhaled NO, Change (absolute value) ([1]; infusion versus pre-infusion) | MAP, Change (%) ([1]; infusion versus pre-infusion) | MAP, Change (absolute value) ([1]; infusion versus pre-infusion) | further results
CC(O)CO (stereo not drawn) [1,2-Propanediol] | noticeable effect; also recorded: exhibited NO delivering capacity | 217% | 27.9 ppb | −16% | −14.7 cmH2O | –
OCCCO [1,3-Propanediol] | noticeable effect; also recorded: exhibited NO delivering capacity | 562% | 78.2 ppb | −33% | −38.2 cmH2O | –
COC1O[C@H](CO)[C@@H](O)[C@H]1O (stereo partly drawn) [1-O-methyI-Ribose, 1-O-methyl-ribose] | noticeable effect | 1284% | 155.9 ppb | −50% | −50.0 cmH2O | –
NC(CO)CO [2-Amino-1,3-propanediol] | – | 14% | 2.4 ppb | – | – | –
O=CC[C@H](O)[C@H](O)CO [2-deoxy-Ribose] | noticeable effect | 269% | 32.7 ppb | – | – | –
NCC(O)CO (stereo not drawn) [3-Amino-1,2-propanediol] | – | 0% | 0 ppb | – | – | –
C[C@H](N)C(=O)O [Alanine] | – | 0% | 0 ppb | – | – | –
N=C(N)NCCC[C@H](N)C(=O)O [Arginine] | – | – | – | – | – | Exhaled NO, Change (%) ([1]; rabbit, in vivo): 3%; Exhaled NO, Change (absolute value) ([1]; rabbit, in vivo): 0.6 ppb
CCCO [Carrier 1-Propanol, 1-Propanol] | – | 733% | – | −11% | – | –
CC(C)O [Carrier 2-PropanoI, 2-propanol] | noticeable effect; also recorded: marked effect | 1400% | 180 ppb | −15% | −14.7 cmH2O | –
CCO [Etanol] | – | 0% | 0 ppb | 0% | 0 cmH2O | –
O=C(CO)[C@@H](O)[C@H](O)[C@H](O)CO [Fructose (60%), Fructose] | noticeable effect | 88% | 13.1 ppb | – | – | –
C[C@H](O)[C@@H](O)[C@@H](O)[C@H](O)C=O [Fucose] | noticeable effect | 22% | 4.1 ppb | – | – | –
O=C[C@H](O)[C@@H](O)[C@@H](O)[C@H](O)CO [Galactose (60%), Galactose] | – | – | – | – | – | Exhaled NO, Change (%) ([1]; rabbit, in vivo): 41%; Exhaled NO, Change (absolute value) ([1]; rabbit, in vivo): 3.3 ppb; effect as NO carrier / NO delivering capacity (words) ([1]; rabbit, in vivo): noticeable effect
N[C@H]1C(O)O[C@H](CO)[C@@H](O)[C@@H]1O (stereo partly drawn) [Glucosamine] | – | −9% | −0.9 ppb | – | – | –
O=C[C@H](O)[C@@H](O)[C@H](O)[C@H](O)C(=O)O [Glucuronic acid] | – | 0% | 0 ppb | – | – | –
OCC(O)CO [Glycerol] | act as a selective NO carrier | 475 ± 120% | 63.3 ± 10.5 ppb | – | – | effect as NO carrier / NO delivering capacity (words) ([1]; compared to the saline control, listed as glycerol): noticeable effect

Compound | effect as NO carrier / NO delivering capacity (words) ([1]; compared to the saline control) | Exhaled NO, Change (%) ([1]; infusion versus pre-infusion) | Exhaled NO, Change (absolute value) ([1]; infusion versus pre-infusion) | MAP, Change (%) ([1]; infusion versus pre-infusion) | MAP, Change (absolute value) ([1]; infusion versus pre-infusion) | further results
NCC(=O)O [Glycine] | – | −4% | −0.6 ppb | – | – | –
COC(=O)[C@@H](N)CCCNC(=N)N[N+](=O)[O-] [L-NAME, N^G-nitro-L-arginine methyl ester] | – | – | – | – | – | End-tidal CO2 and the relevant blood gas parameters [2]: normal; exhaled nitric oxide after L-NAME infusion [2]: < 1 ppb; heart rate (HR) after L-NAME infusion [2]: 258 beats min^−1; systemic mean arterial blood pressure (MAP) after L-NAME infusion [2]: 128 cmHaO
N[C@@H](CS)C(=O)O [L-cysteine] | – | – | – | – | – | behaviour when deoxygenated and exposed to NO gas [3]: a copious precipitate, unsuitable for infusion, was formed
CC(O)C(=O)O (stereo not drawn) [Lactate] | – | 0% | 0 ppb | −2% | −1.5 cmH2O | –
O=C(O)[C@H](O)[C@@H](O)[C@H](O[C@@H]1O[C@H](CO)[C@H](O)[C@H](O)[C@H]1O)[C@H](O)CO [Lactobionic acid] | noticeable effect | 42% | 8.3 ppb | −35% | −32.4 cmH2O | –
OC[C@@H](O)[C@@H](O)[C@H](O)[C@H](O)CO [Mannitol (20%), Mannitol] | noticeable effect; also recorded: positive results | 55.6% | 4.7 ppb | – | – | –
CC(=O)N[C@@H](CS)C(=O)O [N-Acetylcysteine] | noticeable effect | 19% | 4.1 ppb | – | – | –
O=C[C@H](O)[C@H](O)[C@H](O)CO [Ribose (50%), Ribose] | noticeable effect | 77 ± 43% | 8.2 ± 3.0 ppb | – | – | –
OC[C@@H](O)[C@@H](O)[C@H](O)[C@@H](O)CO [Sorbitol (60%), Sorbitol] | noticeable effect | 60% | 4.2 ppb | – | – | –
OC[C@H]1O[C@@](CO)(O[C@H]2O[C@H](CO)[C@@H](O)[C@H](O)[C@H]2O)[C@@H](O)[C@@H]1O [Sucrose (60%), Sucrose] | noticeable effect | 75% | 11.2 ppb | – | – | –
[N]=O [inhaled nitric oxide, nitric oxide] | – | – | – | – | – | treatment of venous gas embolism [4]: impossible to treat
Dextran [Dextran (15%)] | noticeable effect; also recorded: positive results | 24% | 2.8 ppb | −34% | −45.5 cmH2O | –
Fucoidan [Fucoidan (10%)] | noticeable effect | 23% | 4.7 ppb | −52% | −55.9 cmH2O | –
Heparin [Heparin (15000 IU/ml, 10%)] | – | −5% | −0.6 ppb | −12% | −8.8 cmH2O | –
Inulin [Inulin (15%)] | noticeable effect | 12% | 1.8 ppb | −31% | −26.5 cmH2O | –
PEG 400 | positive results | – | – | – | – | –
Polyethylene glycol | noticeable effect | 61% | 11.2 ppb | −19% | −17.6 cmH2O | –
